Consider 22 compounds from patent US12479816B2, “20-HETE formation inhibitors” (UNIVERSITY OF PITTSBURGH—OF THE COMMONWEALTH SYSTEM OF …, priority 2019, dated 2025).

≈ marks a conversion by molar mass, not a printed value. Bounds are passed on as bounds.

For data set [1], the system named is 20-HETE formation (CYP4) in HLM. As to the kind of experiment: Inhibition of 20-HETE formation at 250 or 500 nM in HLM microsomal incubations. It is filed as biochemical, human. As to conditions: 500 nM compound; HLM 300 μg/ml, AA 100 μM, 20 min. The protocol: (§1) To screen the inhibitory effects against 20-HETE formation, compounds were screened in HLM, RLM, RKM and rCYP4F2 microsomal incubations. Compounds dissolved in either 100% methanol or 100% DMSO to yield 10 mM stock solution. Microsomal incubations containing HLM, RLM, RKM (300 μg/ml) or rCYP4F2 (25 pmol/mL), AA (100 μM), NADPH (1 mM) treated with test compounds at various concentrations (500 nM or 250 nM) in a 1 ml total volume in incubation buffer (0.12 M potassium phosphate buffer containing 5 mM magnesium chloride). Reaction was started by adding NADPH to the incubates and was carried out at 37° C. in a shaking water bath for 20 min. Reaction was stopped by placing tubes on ice, followed by adding 125 μl 20-HETE-d6 as internal standard to each sample. Microsomal incubations were extracted with 3 ml ethyl ether twice, dried down under nitrogen gas and reconstituted in 125 μl 80:20 methanol:deionized H2O for analysis. 20-HETE formation was quantified using a validated UPLC-MS/MS assay and normalized by vehicle group. Each compound had three replications (n=3). Vehicle group was used as control to calculate percentage of 20-HETE formation rate. HET0016 (250 nM) was used as positive control. Incubates without NADPH group served as the negative control. An Acquity ultra performance LC autosampler (Waters, Milford, MA) was used to isolate 20-HETE on an UPLC BEH C18, 1.7 μm (2.1×100 mm) reversed-phase column (Waters, Milford, MA) protected by a guard column (2.1×5 mm; Waters, Milford, MA) of the same packing material. Column temperature was maintained at 55° C. Mobile phases consisted of 0.005% acetic acid, 5% acetonitrile in deionized water (A) and 0.005% acetic acid in acetonitrile (B). The flow rate for mobile phases is 0.5 ml/min. The initial mixture of mobile phase was 65:35 of A and B. Mobile phase B increased at 0.4 minutes after injection from 35% to 70% in a linear gradient over 4 minutes, and again increased to 95% over 0.5 minutes where it remained for 0.3 minutes. This was followed by a linear return to initial conditions over 0.1 minutes with a 1.5 minute pre-equilibration period prior to the next sample run. Total run time was 6.4 minutes for each injection. Injection volumes were 7.5 μl. Mass spectrometric analysis was carried out using a TSQ Quantum Ultra (Thermo Fisher Scientific, San Jose, CA) triple quadrupole mass spectrometer using heated electrospray ionization (HESI). Mass spectrometer was operated in negative selective reaction monitoring (SRM) mode with unit resolutions at both Q1 and Q3 set at 0.70 Da full width at half maximum. Scan time was set at 0.01 s and collision gas pressure was 1.3 mTorr. Quantitation of 20-HETE by SRM was performed by monitoring the m/z. Analytical data was acquired and analyzed using Xcaliber 3.0 data system (ThermoFinnigan, San Jose, CA).

Data set [2] addresses T1, rCYP4F2 (Homo sapiens, UniProt P78329).
T1 sequence (P78329 5-520): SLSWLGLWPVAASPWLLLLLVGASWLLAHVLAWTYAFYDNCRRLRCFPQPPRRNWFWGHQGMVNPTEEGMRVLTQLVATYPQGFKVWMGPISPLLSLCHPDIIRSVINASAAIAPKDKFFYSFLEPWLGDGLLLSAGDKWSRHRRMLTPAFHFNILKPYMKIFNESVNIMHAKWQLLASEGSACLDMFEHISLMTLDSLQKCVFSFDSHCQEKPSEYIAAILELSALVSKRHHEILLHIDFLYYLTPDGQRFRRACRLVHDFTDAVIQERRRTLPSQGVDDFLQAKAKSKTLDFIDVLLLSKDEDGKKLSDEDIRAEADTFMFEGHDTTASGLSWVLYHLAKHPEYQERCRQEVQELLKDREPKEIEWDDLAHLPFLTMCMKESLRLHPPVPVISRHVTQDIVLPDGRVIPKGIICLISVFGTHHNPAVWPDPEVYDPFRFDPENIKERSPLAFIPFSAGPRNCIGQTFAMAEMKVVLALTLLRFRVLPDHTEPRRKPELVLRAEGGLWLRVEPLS
Description: Inhibition of 20-HETE formation at 250 or 500 nM in rCYP4F2 incubations. It counts as biochemical. As to conditions: 500 nM compound; rCYP4F2 25 pmol/mL; read-out: rCYP4F2 % inh. @ 500 nM. The method, then:
as §1

The test system of data set [3] is 20-HETE formation (CYP4) in RLM. Description: Inhibition of 20-HETE formation at 250 or 500 nM in RLM microsomal incubations. It is filed as biochemical, rat. As to conditions: 500 nM compound; RLM 300 μg/ml. The protocol:
as §1

Data set [4] is described as follows: Turbidometric solubility determination. It counts as physicochemical. As to conditions: PBS with 1% DMSO, aqueous buffer, kinetic from dmso stock, room temperature, OD620, read-out: Max Solub. The method, then: Solubility determinations shown in Table 3 were obtained turbidometrically and in a manner similar to the one described in Perez et al., J. Biomol. Screen, 2015, 20(2), 254-64. The method requires small volumes of 100× stock concentration drug solution to be prepared in DMSO 0, 0.23, 0.47, 0.94, 1.88, 3.75, 7.5, 15.0, 30.0 and […]. The stock drug concentrations are then diluted 1:100 added into triplicate wells containing PBS in a clear bottom 384 well microtiter to achieve final testing concentrations of 0, 2.3, 4.7, 9.4, 18.8, 37.5, 75, 150, 300, 600 μM in 1% DMSO. The plate is allowed to equilibrate with constant shaking for 2 hours at room temperature. The plate is then placed in a SpectroMax V plate reader to measure absorbance at 620 nm. Increase in absorbance is evident in test wells which precipitation of the compound is evident. The plot of OD620 vs. drug concentration is used to calculate the maximum solubility limit as determined by a statistically significant increase in absorbance above the background levels.

On to `Clc1cccc(C2CCN(c3cn[nH]c3)CC2)c1` [Compound 61, 4-(3-Chlorophenyl)-1-(1H-pyrazol-4-yl)piperidine], for which the “HLM % inh. @ 500 nM” value in data set [1] came to 77.5%. In addition, in data set [2], the inhibition at 0.5 µM was 81.3%. For the same compound, the “RLM % inh. @ 500 nM” value in data set [3] was found to be 61.00%. Besides, the solubility at 2 h in data set [4] came to 121 µM (≈ 31.7 µg/mL).

With `Clc1ccc(C2CCN(c3ccn[nH]3)CC2)cc1` [Compound 62, 4-(4-chlorophenyl)-1-(1H-pyrazol-5-yl)piperidine], the “HLM % inh. @ 500 nM” value in data set [1] was determined as 60.0%. Moreover, the inhibition at 0.5 µM in data set [2] stood at 45%. Moreover, the “RLM % inh. @ 500 nM” value in data set [3] was 0.00%. The solubility at 2 h in data set [4] was found to be 42.4 µM (≈ 11.1 µg/mL).

For the compound `Clc1ccc(C2CCN(c3cn[nH]c3)CC2)cc1` [Compound 63, 4-(4-chlorophenyl)-1-(1H-pyrazol-4-yl)piperidine], the “HLM % inh. @ 500 nM” value in data set [1] stood at 74.3%. The inhibition at 0.5 µM in data set [2] turned out to be 73.8%. For the same compound, in data set [3], the “RLM % inh. @ 500 nM” value came to 10.30%. Moreover, in data set [4], the solubility at 2 h was 13.3 µM (≈ 3.48 µg/mL).

Take `COc1ccc(C2CCN(c3cn[nH]c3)CC2)c(Cl)c1` [Compound 65, 4-(2-Chloro-4-methoxyphenyl)-1-(1H-pyrazol-4-yl)piperidine]: the “HLM % inh. @ 500 nM” value in data set [1] amounted to 57.00%. In addition, the inhibition at 0.5 µM in data set [2] was 35%. For the same compound, in data set [3], the “RLM % inh. @ 500 nM” value is 0.00%. For the same compound, the solubility at 2 h in data set [4] is 18.7 µM (≈ 5.46 µg/mL).

With `COc1cc(CC2CCN(c3cn[nH]c3)CC2)ccn1` [Compound 98, 4-((1-(1H-Pyrazol-4-yl)piperidin-4-yl)methyl)-2-methoxypyridine], the “HLM % inh. @ 500 nM” value in data set [1] amounted to 37.20%. For the same compound, the inhibition at 0.5 µM in data set [2] was 25%. In addition, the “RLM % inh. @ 500 nM” value in data set [3] came out at 5.00%.

As to `COc1cc(CC2CCN(c3ccn[nH]3)CC2)ccn1` [Compound 99, 4-((1-(1H-Pyrazol-5-yl)piperidin-4-yl)methyl)-2-methoxypyridine], the “HLM % inh. @ 500 nM” value in data set [1] was found to be 17.70%. Also, in data set [2], the inhibition at 0.5 µM worked out at 0%. For the same compound, in data set [3], the “RLM % inh. @ 500 nM” value is listed as 0.00%.

`O=S1(=O)CCc2cc(C3CCN(c4cn[nH]c4)CC3)ccc21` [Compound 102, 5-(1-(1H-Pyrazol-4-yl)piperidin-4-yl)-2,3-dihydrobenzo[b]thiophene 1,1-dioxide]: the “HLM % inh. @ 500 nM” value in data set [1] was determined as 36.50%. The inhibition at 0.5 µM in data set [2] turned out to be 27.9%. Further, the “RLM % inh. @ 500 nM” value in data set [3] came to 0.00%.

With `FC(F)(F)c1cncc(C2CCN(c3ccn[nH]3)CC2)c1` [Compound 103, 3-(1-(1H-Pyrazol-5-yl)piperidin-4-yl)-5-(trifluoromethyl)pyridine], in data set [1], the “HLM % inh. @ 500 nM” value turned out to be 0.00%. Further, the inhibition at 0.5 µM in data set [2] was found to be 0%. The “RLM % inh. @ 500 nM” value in data set [3] was 0.00%.

On to `Nc1ccc(C2CCN(c3cn[nH]c3)CC2)cc1` [Compound 105, 4-(1-(1H-pyrazol-4-yl)piperidin-4-yl)aniline], for which the “HLM % inh. @ 500 nM” value in data set [1] was determined as 77.30%. In addition, the inhibition at 0.5 µM in data set [2] was found to be 78%. The “RLM % inh. @ 500 nM” value in data set [3] was found to be 17.00%.

For `O=S1(=O)CCc2cc(C3CCN(c4ccn[nH]4)CC3)ccc21` [Compound 106, 5-(1-(1H-Pyrazol-5-yl)piperidin-4-yl)-2,3-dihydrobenzo[b]thiophene 1,1-dioxide], the “HLM % inh. @ 500 nM” value in data set [1] is recorded as 0.00%. Further, the inhibition at 0.5 µM in data set [2] was determined as 0%. Moreover, the “RLM % inh. @ 500 nM” value in data set [3] is 0.00%.

Regarding `O=[N+]([O-])c1ccc(C2CCN(c3cn[nH]c3)CC2)cc1` [Compound 111, 4-(4-Nitrophenyl)-1-(1H-pyrazol-4-yl)piperidine], in data set [1], the “HLM % inh. @ 500 nM” value is listed as 43.5%. Also, the inhibition at 0.5 µM in data set [2] was 60.1%. Further, the “RLM % inh. @ 500 nM” value in data set [3] was 22.30%.

In the case of `O=[N+]([O-])c1ccc(C2CCN(c3ccn[nH]3)CC2)cc1` [Compound 112, 4-(4-Nitrophenyl)-1-(1H-pyrazol-5-yl)piperidine], the “HLM % inh. @ 500 nM” value in data set [1] came out at 21.90%. Also, the inhibition at 0.5 µM in data set [2] is 41.3%. Besides, the “RLM % inh. @ 500 nM” value in data set [3] stood at 20.30%.

`CS(=O)(=O)Nc1ccc(C2CCN(c3cn[nH]c3)CC2)cc1` [Compound 113, N-(4-(1-(1H-pyrazol-4-yl)piperidin-4-yl)phenyl)methanesulfonamide]: the “HLM % inh. @ 500 nM” value in data set [1] was found to be 30.5%. Also, in data set [2], the inhibition at 0.5 µM turned out to be 67.6%. Further, in data set [3], the “RLM % inh. @ 500 nM” value worked out at 14.30%.

Regarding `O=C1CCCN1Cc1ccc(C2CCN(c3cn[nH]c3)CC2)c(F)c1` [Compound 118, 1-(4-(1-(1H-Pyrazol-4-yl)piperidin-4-yl)-3-fluorobenzyl)pyrrolidin-2-one], the solubility at 2 h in data set [4] was 443 µM (≈ 152 µg/mL).

On to `Cl.O=C1CCCN1c1ccc(C2CCN(c3cn[nH]c3)CC2)cc1` [Compound 119, 1-(4-(1-(1H-Pyrazol-4-yl)piperidin-4-yl)phenyl)pyrrolidin-2-one hydrochloride], for which the solubility at 2 h in data set [4] was 63 µM.

Consider `c1cc(C2CCN(c3cn[nH]c3)CC2)ccc1CN1CCOCC1` [Compound 121, 4-(4-(1-(1H-Pyrazol-4-yl)piperidin-4-yl)benzyl)morpholine], for which the solubility at 2 h in data set [4] worked out at 122 µM (≈ 39.9 µg/mL).

`O=C1COCCN1c1ccc(C2CCN(c3cn[nH]c3)CC2)cc1` [Compound 122, 4-(4-(1-(1H-Pyrazol-4-yl)piperidin-4-yl)phenyl)morpholin-3-one]: in data set [4], the solubility at 2 h worked out at 247 µM (≈ 80.7 µg/mL).

As to `Fc1cc(C2CCN(c3cn[nH]c3)CC2)ccc1N1CCOCC1` [Compound 123, 4-(4-(1-(1H-Pyrazol-4-yl)piperidin-4-yl)-2-fluorophenyl)morpholine], the solubility at 2 h in data set [4] came out at 85.5 µM (≈ 28.2 µg/mL).

As for `Fc1cc(N2CCOCC2)ccc1C1CCN(c2cn[nH]c2)CC1` [Compound 124, 4-(4-(1-(1H-Pyrazol-4-yl)piperidin-4-yl)-3-fluorophenyl)morpholine], the solubility at 2 h in data set [4] was 26.6 µM (≈ 8.79 µg/mL).

As to `C[C@H](c1ccc(C2CCN(c3cn[nH]c3)CC2)cc1)N1CCCC1=O` [Compound 125, (R)-1-(1-(4-(1-(1H-pyrazol-4-yl)piperidin-4-yl)phenyl)ethyl)pyrrolidin-2-one], the solubility at 2 h in data set [4] is greater than 600 µM.

In the case of `C[C@@H](c1ccc(C2CCN(c3cn[nH]c3)CC2)cc1)N1CCCC1=O` [Compound 126, (S)-1-(1-(4-(1-(1H-pyrazol-4-yl)piperidin-4-yl)phenyl)ethyl)pyrrolidin-2-one], in data set [4], the solubility at 2 h was greater than 600 µM.

As to `COc1ccc(CC2CCN(c3cn[nH]c3)CC2)cc1` [Compound 127, 4-[(4-Methoxyphenyl)methyl]-1-(1H-pyrazol-4-yl)piperidine], in data set [4], the solubility at 2 h turned out to be 151 µM (≈ 41 µg/mL).
